Laboratory results taken from the supplement of paper PMC5844555.

Experiments:
Assay in all cases: 3' UTR reporter interaction score (median-centred robust z-score of log2 firefly/Renilla activity); higher = less repression of the 3' UTR reporter
Conditions in all cases: HEK293T; 48 h
HRAS = test system: HRAS
Method in brief: (§1)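 HEK293T cells were seeded at 10,000 per well in 96-well plates and co-transfected with DharmaFECT Duo, using 100 ng of a firefly luc2P reporter carrying the gene's 3' UTR, 20 ng of Renilla pRL-TK control and 2.5 pmol of miRNA mimic. Both luciferase activities were measured 48 h after transfection. The interaction score is the log-transformed firefly/Renilla ratio, converted to a per-plate robust z-score from the median and median absolute deviation and then median-centred per miRNA, with more negative values indicating interaction. Scores were averaged across at least two independent screens.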

MYCN = test system: MYCN
Method in brief: as §1

FBXW7 = test system: FBXW7
Method in brief: as §1

BRCA2 = test system: BRCA2
Method in brief: as §1

RB1 = test system: RB1
Method in brief: as §1

MYT1L = test system: MYT1L
Method in brief: as §1

MYB = test system: MYB
Method in brief: as §1

PHOX2B = test system: PHOX2B
Method in brief: as §1

MYC = test system: MYC
Method in brief: as §1

NOTCH1 = test system: NOTCH1
Method in brief: as §1

ZEB2 = test system: ZEB2
Method in brief: as §1

PHF6 = test system: PHF6
Method in brief: as §1

TP53 = test system: TP53
Method in brief: as §1

EZH2 = test system: EZH2
Method in brief: as §1

Sequence | 3' UTR reporter interaction score (HRAS) | 3' UTR reporter interaction score (MYCN) | 3' UTR reporter interaction score (FBXW7) | 3' UTR reporter interaction score (BRCA2) | 3' UTR reporter interaction score (RB1) | 3' UTR reporter interaction score (MYT1L) | 3' UTR reporter interaction score (MYB) | 3' UTR reporter interaction score (PHOX2B) | 3' UTR reporter interaction score (MYC) | 3' UTR reporter interaction score (NOTCH1) | 3' UTR reporter interaction score (ZEB2) | 3' UTR reporter interaction score (PHF6) | 3' UTR reporter interaction score (TP53) | 3' UTR reporter interaction score (EZH2)
UGUGACUGGUUGACCAGAGGG | -0.321 | -1.12 | -1.25 | 0.687 | -1.22 | -0.108 | -1.86 | 0.929 | 0.219 | 0.462 | 1.2 | 0.602 | 0.803 | 0.91
UGUGCAAAUCCAUGCAAAACUGA | -1.63 | -3.09 | 0.561 | -0.438 | 0.608 | -0.216 | -1.86 | -0.753 | 0.638 | -0.355 | -2.12 | 0.456 | 0.0709 | 0.306
UGUGCAAAUCUAUGCAAAACUGA | -1.18 | -2.74 | 0.679 | -0.799 | 0.548 | 0.342 | -0.797 | 0.393 | -0.0223 | -0.179 | -1.34 | 0.299 | 0.088 | -0.0175
UGUGCUUGCUCGUCCCGCCCGCAG | -0.789 | -0.114 | -0.0879 | 0.879 | 0.514 | 0.198 | -0.522 | 0.4 | 0.429 | 0.256 | 0.763 | 1.4 | -0.328 | -0.199
UGUGUCACUCGAUGACCACUGU | 1.13 | 0.203 | 1.58 | 0.0202 | -0.876 | -1.73 | -0.364 | 0.976 | 0.947 | -1.12 | 0.295 | -0.745 | 0.4 | 1.04
UGUUUGCAGAGGAAACUGAGAC | 1.34 | 0.322 | -1.52 | -0.0179 | -0.175 | -0.13 | 1.43 | -0.484 | 0.778 | -0.933 | -1.2 | -0.0326 | -0.173 | 0.739
UUAAGACUUGCAGUGAUGUUUAA | 0.424 | 0.438 | 1.23 | 0.155 | -2.53 | -0.158 | -1.14 | -0.221 | -0.159 | 0.344 | -4.05 | -1.09 | 1.42 | 0.772
UUAAGGCACGCGGUGAAUGCCA | 0.364 | 0.541 | 0.904 | -0.0269 | -1.9 | 2.33 | -2.16 | 0.282 | -0.0293 | 0.623 | -0.335 | -1.29 | 0.35 | -1.56
UUAAUGCUAAUCGUGAUAGGGG | 0.347 | -0.313 | 0.373 | -0.67 | -0.667 | -0.119 | -1.61 | 0.553 | 0.891 | 0.178 | -0.523 | -0.0755 | 0.0933 | 1.21
UUACAGUUGUUCAACCAGUUACU | 0.218 | -1.85 | -1.36 | 1.74 | -3.47 | 0.162 | -0.553 | -0.835 | 0.385 | -0.374 | -1.76 | 1.47 | 0.131 | 0.156
UUAUAAUACAACCUGAUAAGUG | 0.161 | 0.404 | -0.529 | 0.693 | 1.94 | -1.13 | -0.653 | -0.00808 | 1.32 | -0.345 | -0.469 | -0.286 | -0.443 | 0.963
UUAUCAGAAUCUCCAGGGGUAC | 0.803 | -0.164 | 0.189 | 0.769 | -0.955 | -0.147 | 1.26 | -1.55 | 1.44 | 0.0518 | 0.799 | 0.08 | -0.646 | -0.893
UUAUGGUUUGCCUGGGACUGAG | 0.369 | -0.255 | -3.46 | 0.104 | -0.796 | 1.06 | 1.44 | 0.156 | 0.675 | -0.409 | -0.72 | -0.769 | -1.16 | 0.163
UUCAACGGGUAUUUAUUGAGCA | 1.35 | 0.423 | 0.647 | 0.803 | 0.475 | -0.699 | -0.5 | 0.542 | -0.455 | -0.631 | -0.63 | -0.872 | 0.52 | 0.563
UUCAAGUAAUCCAGGAUAGGC | -0.41 | -0.368 | 1.99 | 1.36 | -0.662 | 1.27 | 1.11 | -0.534 | -1.71 | 1.68 | -0.465 | -0.0329 | 0.423 | -4.57
UUCAAGUAAUUCAGGAUAGGUU | -1.14 | 0.732 | 1.51 | 0.455 | -1.95 | 1.44 | 1.26 | 0.967 | -1.49 | 1.02 | 0.133 | -0.939 | -0.282 | -4.18
UUCACAGGGAGGUGUCAUUUAU | 0.0679 | 1.06 | -3.1 | -0.226 | 0.105 | 0.885 | -0.536 | -0.65 | 0.377 | 0.269 | -0.846 | -1.72 | 0.0668 | 1.32
UUCACAGUGGCUAAGUUCUGC | -1.25 | 0.736 | -3.31 | -0.687 | 0.0429 | 0.34 | 1.56 | 0.845 | -0.0656 | 1.04 | 0.787 | 0.752 | -0.662 | -0.367
UUCACCACCUUCUCCACCCAGC | 0.00141 | 0.95 | -2.88 | -0.718 | 0.874 | 0.639 | 0.974 | 0.365 | 0.119 | -0.224 | 1.21 | -0.605 | -0.656 | 0.425
